Assay results reported in patent US11046697B2, “Compounds and compositions useful for treating disorders related to NTRK” (BLUEPRINT MEDICINES CORPORATION, priority 2015, dated 2021).
Where two headings read alike, the source gives them in different places.

Key:
wild type NTRK1 enzyme = molecular target: T1, wild type NTRK1 enzyme (Homo sapiens, UniProt P04629); test: NTRK1 Wild Type Assay at 1 mM ATP; format: biochemical; details: 1 mM ATP; read-out: Enz NTRK1 IC50
T1 construct: purchased BPS Bioscience 40280
Protocol: NTRK1 Wild Type Assay at 1 mM ATP
The reaction was stopped by the addition of 70 μL of Stop buffer (100 mM HEPES pH 7.5, 0.015% Brij 35, 35 mM EDTA and 0.2% of Coating Reagent 3 (Caliper Lifesciences)). The plate was then read on a Caliper EZReader 2 (protocol settings: −1.7 psi, upstream voltage −500, downstream voltage −3000, post sample sip 35s).

[1] = system: KM12 wild type colon carcinoma cell line harboring the TPM3-NTRK1 fusion protein; test: NTRK wild type cellular assay (CellTiter-Glo growth inhibition); format: cell-based; details: 72 hr, CellTiter-Glo, read-out: KM12 (WT) IC50
Protocol: (§1) NTRK Wild Type and G595R Mutant Cellular Assays Protocol
(§2) KM12 wild type colon carcinoma cell line harboring the TPM3-NTRK1 fusion protein was obtained from the National Cancer Institute (NCI). This line has been previously shown to be dependent upon the NTRK activity derived from the NTRK fusion protein for growth and survival. […] Cells were first plated in 384-well plates at 1000 cells/well in complete media (10% FBS and 1% pen/strep) and incubated overnight at 37° C. Cells were then dosed with test articles at varying concentrations using the Bravo liquid handling system. […] Each compound was run in duplicate per plate. […] 72 hr after dosing, assay plates were developed using CellTiter-Glo (Promega) and resultant luminescence was read on the Envision plate reader. IC50 determinations were calculated using a 4-parameter curve fitting algorithm

[2] = system: KM12 Cliff (G595R) cell line; test: NTRK G595R mutant cellular assay (CellTiter-Glo growth inhibition); format: cell-based; details: 72 hr, CellTiter-Glo
Protocol: as §1, §2

T1 sequence (P04629 440-796 limits assumed): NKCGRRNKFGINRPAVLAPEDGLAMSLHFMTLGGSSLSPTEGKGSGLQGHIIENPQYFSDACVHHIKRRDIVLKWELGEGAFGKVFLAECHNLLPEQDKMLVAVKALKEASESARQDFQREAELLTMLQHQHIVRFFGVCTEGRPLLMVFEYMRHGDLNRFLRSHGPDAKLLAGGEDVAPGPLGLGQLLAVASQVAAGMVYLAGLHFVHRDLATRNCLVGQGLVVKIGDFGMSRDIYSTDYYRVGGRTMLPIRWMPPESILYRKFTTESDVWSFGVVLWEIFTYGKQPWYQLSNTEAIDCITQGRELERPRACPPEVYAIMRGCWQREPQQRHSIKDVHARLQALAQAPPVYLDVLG

SMILES | IC50 (wild type NTRK1 enzyme) | IC50 ([1]; Homo sapiens, KM12, 72 h) | IC50 ([2]; Homo sapiens, KM12, 72 h) | IC50 [1] | IC50 [2]
CN(Cc1cc(Cl)ccc1F)C(=O)c1n[nH]c2ncnc(N[C@@H]3CC[C@@H](O)[C@H]3O)c12 [Compound 148] | < 10 nM | < 10 nM | < 10 nM | – | –
CN(Cc1cc(F)cnc1Cl)C(=O)c1n[nH]c2ncnc(NC3COCCC3O)c12 (stereo not drawn) [Compound 149] | < 10 nM | – | – | 10 to 100 nM | 10 to 100 nM
CN(Cc1cc(F)cnc1Cl)C(=O)c1n[nH]c2ncnc(NC3CCOCC3O)c12 (stereo not drawn) [Compound 150] | 10 to 100 nM | – | – | 10 to 100 nM | 10 to 100 nM
CN(Cc1cc(F)cnc1Cl)C(=O)c1n[nH]c2ncnc(NC3CC(F)CC3O)c12 (stereo not drawn) [Compound 151] | 10 to 100 nM | – | – | 10 to 100 nM | 10 to 100 nM
O=C(c1n[nH]c2ncnc(N[C@H]3[C@H](O)[C@H](O)[C@@H]4C[C@@H]43)c12)N1C[C@@H](F)C[C@@H]1c1ccccc1 [Compound 153] | 10 to 100 nM | – | – | 10 to 100 nM | 10 to 100 nM
O=C(c1n[nH]c2ncnc(N[C@@H]3CCC[C@@H](O)[C@H]3O)c12)N1C[C@@H](F)C[C@@H]1c1ccccc1 [Compound 155] | 10 to 100 nM | – | – | 10 to 100 nM | 10 to 100 nM
CN(Cc1cc(Cl)ccc1C#N)C(=O)c1n[nH]c2ncnc(N[C@@H]3CC[C@@H](O)[C@H]3O)c12 [Compound 156, N-(5-chloro-2-cyanobenzyl)-4-(((1R,2S,3R)-2,3-dihydroxycyclopentyl)amino)-N-methyl-1H-pyrazolo[3,4-d]pyrimidine-3-carboxamide] | 10 to 100 nM | 10 to 100 nM | < 10 nM | – | –
O=C(c1n[nH]c2ncnc(N[C@@H]3CCOC[C@H]3O)c12)N1C[C@@H](F)C[C@@H]1c1cccc(F)c1 [Compound 158] | < 10 nM | 10 to 100 nM | 10 to 100 nM | – | –
CN(Cc1cc(F)cnc1Cl)C(=O)c1n[nH]c2ncnc(N[C@H]3[C@H](O)[C@H](O)[C@@H]4C[C@@H]43)c12 [Compound 159] | < 10 nM | 10 to 100 nM | 10 to 100 nM | – | –
CC(c1cc(F)ccc1F)N(C)C(=O)c1n[nH]c2ncnc(NC3COCC(O)C3O)c12 (stereo not drawn) [Compound 160] | < 10 nM | – | – | 10 to 100 nM | 10 to 100 nM
CN(Cc1cc(F)cnc1Cl)C(=O)c1n[nH]c2ncnc(N[C@@H]3CCC[C@@H](O)[C@H]3O)c12 [Compound 161] | 10 to 100 nM | – | – | 10 to 100 nM | 10 to 100 nM
CN(Cc1cc(F)ccc1Cl)C(=O)c1n[nH]c2ncnc(N[C@@H]3COC[C@@H](O)[C@H]3O)c12 [Compound 162] | < 10 nM | 10 to 100 nM | 10 to 100 nM | – | –
CN(Cc1cc(Cl)ccc1F)C(=O)c1n[nH]c2ncnc(N[C@@H]3COC[C@@H](O)[C@H]3O)c12 [Compound 163] | < 10 nM | 10 to 100 nM | 10 to 100 nM | – | –
CN(Cc1cc(F)cc(F)c1F)C(=O)c1n[nH]c2ncnc(N[C@@H]3COC[C@@H](O)[C@H]3O)c12 [Compound 164] | 10 to 100 nM | 10 to 100 nM | 10 to 100 nM | – | –
N#C[C@H]1C[C@@H](O)[C@H](Nc2ncnc3[nH]nc(C(=O)N4C[C@@H](F)C[C@@H]4c4cncc(F)c4)c23)C1 [Compound 166] | < 10 nM | – | – | 100 to 1000 nM | 100 to 1000 nM
CN(Cc1cc(Cl)ccc1Br)C(=O)c1n[nH]c2ncnc(N[C@@H]3CCC[C@@H](O)[C@H]3O)c12 [Compound 167] | < 10 nM | – | – | < 10 nM | < 10 nM
O=C(c1n[nH]c2ncnc(NC3CCCC(O)C3O)c12)N1CC(F)CC1c1cccc(F)c1 (stereo not drawn) [Compound 168] | < 10 nM | – | – | < 10 nM | < 10 nM
O=C(c1n[nH]c2ncnc(NC3COCC(O)C3O)c12)N1CC(F)CC1c1cccc(F)c1 (stereo not drawn) [Compound 169] | 10 to 100 nM | – | – | 10 to 100 nM | 10 to 100 nM
O=C(c1n[nH]c2ncnc(N[C@@H]3C=C[C@@H](O)[C@H]3O)c12)N1C[C@@H](F)C[C@@H]1c1cc(F)ccc1F [Compound 170] | < 10 nM | – | – | < 10 nM | < 10 nM
O=C(c1n[nH]c2ncnc(N[C@@H]3C=C[C@@H](O)[C@H]3O)c12)N1C[C@@H](F)C[C@@H]1c1cc(F)cc(F)c1 [Compound 171] | 10 to 100 nM | – | – | 10 to 100 nM | 10 to 100 nM
O=C(c1n[nH]c2ncnc(N[C@@H]3C=C[C@@H](O)[C@H]3O)c12)N1C[C@@H](F)C[C@@H]1c1cccc(F)c1F [Compound 172] | < 10 nM | – | – | 10 to 100 nM | 10 to 100 nM
